Laboratory results published in patent US7115645B2, “1,2 diarylbenzimidazoles and their pharmaceutical use” (Schering Aktiengesellschaft, priority 2000, dated 2006).

Tested on: primary rat microglia
Test: Inhibition of microglia activation (Aβ-peptide-activated primary rat microglia, MTS reduction)
Type: cell-based
Details: 168 h, test of Example 307, metabolic activity via MTS reduction on cultivation day 7, relative to DMSO control

Cc1ccc(-n2c(-c3ccccc3)nc3ccc(OCCCCCC(=O)OC(C)C)cc32)cc1 [Example 49, 6-[[1-(4-Methylphenyl)-2-phenyl-1H-benzimidazol-6-yl]oxy]hexanoic acid isopropyl ester]
IC50: 0.75 µM
